Data on one compound can be found in patent US11458205B2, “Genetically encoded intrinsically disordered stealth polymers for delivery and methods of using same” (Duke University, priority 2015, dated 2022).

The assay has as its system MDA-MB-231 human triple negative breast cancer cells. Put plainly: In vitro cytotoxicity (MTS) of ZiPP-PTX conjugates. It counts as cell-based. As to conditions: MDA-MB-231, 72 hours of drug treatment, concentration in terms of the drug, read-out: IC50 (concentration of the drug that reduced cell viability by 50%). The procedure:
In vitro cytotoxicity of ZiPP-PTX conjugates. In vitro cytotoxicity was done on MDA-MB-231 human triple negative breast cancer cells. 3×10^3 cells were seeded per 100 μL of media in Falcon™ 96-well cell culture plates (BD; Franklin Lakes, N.J.). The cells were allowed to adhere for 16-18 hours before being treated with free PTX and ZiPP-PTX at concentrations that ranged from sub-nanomolar to high-micromolar range. After 72 hours of drug treatment, 20 μL of […] (MTS) reagent (CellTiter 96 AQueous™ Promega; Madison, Wis.) was added to each well and incubated for an additional 2 hours. A dose-response curve for free drug and ZiPP-drug conjugate was constructed by measuring the absorbance of each well at 490 nm with a Victor3 microplate reader (Perkin Elmer; Waltham, Mass.). The 50% inhibitory concentration, IC50, was determined by fitting data to the following equation (Andrew MacKay, J., et al. Nat. Mater. 2009, 8, 993-999):
[formula] where V is viability of cells, Ctreatment is drug concentration, and p is slope of the dose response curve. This IC50 value is used to evaluate the potency of the conjugates.
The in vitro cytotoxicity of Zipp-PTX was measured by looking at the cell viability over a range of concentrations as a function of time. […]

For `CC(=O)O[C@H]1C(=O)[C@@]2(C)[C@H]([C@H](OC(=O)c3ccccc3)[C@]3(O)C[C@H](OC(=O)[C@H](O)[C@@H](NC(=O)c4ccccc4)c4ccccc4)C(C)=C1C3(C)C)[C@]1(OC(C)=O)CO[C@@H]1C[C@@H]2O` [free drug, Paclitaxel], the IC50 was roughly 2 nM.
